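Cells were grown in 96-well plates and exposed to each compound for 48 hours at five concentrations; endpoints were interpolated linearly between bracketing concentrations, or set to the highest concentration if not reached. GI50 marks 50% less growth. TGI: concentration producing complete growth inhibition.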
Experiments:
Test in all cases: NCI tumour cell line growth inhibition, 48 h
786-0 renal = system: 786-0 renal
SF-295 CNS = system: SF-295 CNS
MDA-MB-435 = system: MDA-MB-435
NCI-H226 lung = system: NCI-H226 lung
HCC-2998 colon = system: HCC-2998 colon
SW-620 colon = system: SW-620 colon
KM12 colon = system: KM12 colon
MALME-3M melanoma = system: MALME-3M melanoma
MCF7 breast = system: MCF7 breast
MOLT-4 leukemia = system: MOLT-4 leukemia
OVCAR-8 ovarian = system: OVCAR-8 ovarian
LOX IMVI melanoma = system: LOX IMVI melanoma
SK-MEL-2 melanoma = system: SK-MEL-2 melanoma
HOP-92 NSCLC = system: HOP-92 NSCLC
UACC-62 melanoma = system: UACC-62 melanoma
SNB-19 CNS = system: SNB-19 CNS
SNB-75 CNS = system: SNB-75 CNS
PC-3 prostate = system: PC-3 prostate
UO-31 renal = system: UO-31 renal
HCT-15 colon = system: HCT-15 colon
SK-OV-3 ovarian = system: SK-OV-3 ovarian
OVCAR-5 ovarian = system: OVCAR-5 ovarian
NCI/ADR-RES ovarian = system: NCI/ADR-RES ovarian
CAKI-1 renal = system: CAKI-1 renal
HL-60(TB) leukemia = system: HL-60(TB) leukemia
SR leukemia = system: SR leukemia
MDA-MB-231 breast = system: MDA-MB-231 breast
OVCAR-4 ovarian = system: OVCAR-4 ovarian
K-562 leukemia = system: K-562 leukemia
DU-145 prostate = system: DU-145 prostate
NCI-H23 lung = system: NCI-H23 lung
NCI-H460 lung = system: NCI-H460 lung
COLO 205 colon = system: COLO 205 colon
HCT-116 colon = system: HCT-116 colon
CCRF-CEM leukemia = system: CCRF-CEM leukemia
SF-268 CNS = system: SF-268 CNS
SK-MEL-28 melanoma = system: SK-MEL-28 melanoma
HOP-62 NSCLC = system: HOP-62 NSCLC
OVCAR-3 ovarian = system: OVCAR-3 ovarian
SK-MEL-5 melanoma = system: SK-MEL-5 melanoma
A549 NSCLC = system: A549 NSCLC
HT29 colon = system: HT29 colon
T-47D breast = system: T-47D breast
MDA-MB-468 breast = system: MDA-MB-468 breast
M14 melanoma = system: M14 melanoma
SN12C renal = system: SN12C renal
RPMI-8226 leukemia = system: RPMI-8226 leukemia
UACC-257 melanoma = system: UACC-257 melanoma
HS 578T breast = system: HS 578T breast
TK-10 renal = system: TK-10 renal
RXF 393 renal = system: RXF 393 renal
A498 renal = system: A498 renal
ACHN renal = system: ACHN renal
IGROV1 ovarian = system: IGROV1 ovarian
NCI-H522 lung = system: NCI-H522 lung
SF-539 CNS = system: SF-539 CNS
BT-549 breast = system: BT-549 breast
U251 CNS = system: U251 CNS
EKVX NSCLC = system: EKVX NSCLC

In the case of `CCN1CCN(c2ccc(NC(=O)Nc3ccc(-c4cc(C(=O)NC)c5ncccc5n4)cc3)cc2C(F)(F)F)CC1`, the GI50 (786-0 renal) is reported as 295 nM, the TGI (786-0 renal) is reported as 583 nM and the GI50 (SF-295 CNS) is reported as 2050 nM. It also gave a TGI (SF-295 CNS) of 4.47 µM, a GI50 (MDA-MB-435) of 269 nM and a TGI (MDA-MB-435) of 564 nM. For the same compound, the GI50 (NCI-H226 lung) was 2700 nM, the TGI (NCI-H226 lung) was 6.36 µM and the GI50 (HCC-2998 colon) was 2830 nM. The TGI (HCC-2998 colon) was 5.31 µM, the GI50 (SW-620 colon) was 314 nM and the TGI (SW-620 colon) was 621 nM. For the same compound, the GI50 (KM12 colon) was 3.25 µM, the TGI (KM12 colon) was 6.65 µM and the GI50 (MALME-3M melanoma) was 286 nM. The TGI (MALME-3M melanoma) was 532 nM, the GI50 (MCF7 breast) was 293 nM and the TGI (MCF7 breast) was 608 nM. It also gave a GI50 (MOLT-4 leukemia) of 689 nM, a TGI (MOLT-4 leukemia) greater than 18 µM and a GI50 (OVCAR-8 ovarian) of 3.85 µM. For the same compound, the TGI (OVCAR-8 ovarian) was 10.5 µM, the GI50 (LOX IMVI melanoma) was 674 nM and the TGI (LOX IMVI melanoma) was 2660 nM. It also gave a GI50 (SK-MEL-2 melanoma) of 9.87 µM, a TGI (SK-MEL-2 melanoma) greater than 18 µM and a GI50 (HOP-92 NSCLC) of 2450 nM. For the same compound, the TGI (HOP-92 NSCLC) was 5.67 µM, the GI50 (UACC-62 melanoma) was 3.06 µM and the TGI (UACC-62 melanoma) was 5.66 µM. It also gave a GI50 (SNB-19 CNS) of 2970 nM, a TGI (SNB-19 CNS) of 5.48 µM and a GI50 (SNB-75 CNS) of 842 nM. For the same compound, the TGI (SNB-75 CNS) was 3.82 µM, the GI50 (PC-3 prostate) was 2880 nM and the TGI (PC-3 prostate) was 6.03 µM. For the same compound, the GI50 (UO-31 renal) was 2710 nM, the TGI (UO-31 renal) was 5.14 µM and the GI50 (HCT-15 colon) was 333 nM. It also gave a TGI (HCT-15 colon) of 697 nM, a GI50 (SK-OV-3 ovarian) of 3.48 µM and a TGI (SK-OV-3 ovarian) of 7.5 µM. The GI50 (OVCAR-5 ovarian) was 2820 nM, the TGI (OVCAR-5 ovarian) was 5.23 µM and the GI50 (NCI/ADR-RES ovarian) was 1780 nM. For the same compound, the TGI (NCI/ADR-RES ovarian) was 8.09 µM, the GI50 (CAKI-1 renal) was 3.01 µM and the TGI (CAKI-1 renal) was 5.6 µM. The GI50 (HL-60(TB) leukemia) was 3.42 µM, the TGI (HL-60(TB) leukemia) was greater than 18 µM and the GI50 (SR leukemia) was 670 nM. It also gave a TGI (SR leukemia) greater than 18 µM, a GI50 (MDA-MB-231 breast) of 2780 nM and a TGI (MDA-MB-231 breast) of 5.25 µM. For the same compound, the GI50 (OVCAR-4 ovarian) was 2630 nM, the TGI (OVCAR-4 ovarian) was 5.64 µM and the GI50 (K-562 leukemia) was 657 nM. The TGI (K-562 leukemia) was greater than 18 µM, the GI50 (DU-145 prostate) was 2230 nM and the TGI (DU-145 prostate) was 4.9 µM. For the same compound, the GI50 (NCI-H23 lung) was 2680 nM, the TGI (NCI-H23 lung) was 5.68 µM and the GI50 (NCI-H460 lung) was 664 nM. It also gave a TGI (NCI-H460 lung) of 2920 nM, a GI50 (COLO 205 colon) of 4.15 µM and a TGI (COLO 205 colon) of 14.2 µM. It also gave a GI50 (HCT-116 colon) of 1120 nM, a TGI (HCT-116 colon) of 4.83 µM and a GI50 (CCRF-CEM leukemia) of 461 nM. For the same compound, the TGI (CCRF-CEM leukemia) was 1270 nM, the GI50 (SF-268 CNS) was 3.09 µM and the TGI (SF-268 CNS) was 7 µM. It also gave a GI50 (SK-MEL-28 melanoma) of 322 nM, a TGI (SK-MEL-28 melanoma) of 582 nM and a GI50 (HOP-62 NSCLC) of 2790 nM. It also gave a TGI (HOP-62 NSCLC) of 5.41 µM, a GI50 (OVCAR-3 ovarian) of 2550 nM and a TGI (OVCAR-3 ovarian) of 5.06 µM. It also gave a GI50 (SK-MEL-5 melanoma) of 2050 nM, a TGI (SK-MEL-5 melanoma) of 4.26 µM and a GI50 (A549 NSCLC) of 466 nM. The TGI (A549 NSCLC) was 1300 nM, the GI50 (HT29 colon) was 525 nM and the TGI (HT29 colon) was 2110 nM. The GI50 (T-47D breast) was 3.72 µM, the TGI (T-47D breast) was greater than 18 µM and the GI50 (MDA-MB-468 breast) was 2480 nM. The TGI (MDA-MB-468 breast) was 5.03 µM, the GI50 (M14 melanoma) was 400 nM and the TGI (M14 melanoma) was 1050 nM. For the same compound, the GI50 (SN12C renal) was 2770 nM, the TGI (SN12C renal) was 5.3 µM and the GI50 (RPMI-8226 leukemia) was 3.05 µM. For the same compound, the TGI (RPMI-8226 leukemia) was greater than 18 µM, the GI50 (UACC-257 melanoma) was 3.05 µM and the TGI (UACC-257 melanoma) was 6 µM. For the same compound, the GI50 (HS 578T breast) was 2390 nM, the TGI (HS 578T breast) was 6.88 µM and the GI50 (TK-10 renal) was 3.86 µM. For the same compound, the TGI (TK-10 renal) was 6.63 µM, the GI50 (RXF 393 renal) was 494 nM and the TGI (RXF 393 renal) was 1660 nM. It also gave a GI50 (A498 renal) of 2740 nM, a TGI (A498 renal) of 5.31 µM and a GI50 (ACHN renal) of 2390 nM. The TGI (ACHN renal) was 4.73 µM, the GI50 (IGROV1 ovarian) was 3.01 µM and the TGI (IGROV1 ovarian) was 5.61 µM. For the same compound, the GI50 (NCI-H522 lung) was 3.23 µM, the TGI (NCI-H522 lung) was 6.4 µM and the GI50 (SF-539 CNS) was 2300 nM. For the same compound, the TGI (SF-539 CNS) was 4.57 µM, the GI50 (BT-549 breast) was 2780 nM and the TGI (BT-549 breast) was 5.67 µM. The GI50 (U251 CNS) was 2700 nM, the TGI (U251 CNS) was 5.53 µM and the GI50 (EKVX NSCLC) was 2940 nM. It also gave a TGI (EKVX NSCLC) of 5.63 µM.

From PubChem BioAssay (NCI)
